Measurements as given in US10196359B2, “2-alkyloxy benzene formyl arylamine compound and pharmaceutical use thereof” (FUDAN UNIVERSITY, priority 2014, dated 2019).

Columns and labels:
[1] = system: SMS; conditions: reference value; read-out: IC50 (SMS inhibitory activity); cited from earlier work
[2] = target: T1, Sphingomyelin Synthase 2 (SMS2) (Homo sapiens, UniProt Q8NHU3); assay: In vitro inhibition of sphingomyelin synthase 2, HPLC fluorogenic quantitative detecting method (C6-NBD-ceramide to C6-NBD-SM, SMS2 high-expressed insect cell homogenate); format: biochemical; conditions: for IC50: five concentrations, three parallel groups, experimental value, read-out: SMS2 Median Inhibitory Concentration IC50
T1 construct: made in house; used as homogenate
T1 sequence (Q8NHU3 1-365): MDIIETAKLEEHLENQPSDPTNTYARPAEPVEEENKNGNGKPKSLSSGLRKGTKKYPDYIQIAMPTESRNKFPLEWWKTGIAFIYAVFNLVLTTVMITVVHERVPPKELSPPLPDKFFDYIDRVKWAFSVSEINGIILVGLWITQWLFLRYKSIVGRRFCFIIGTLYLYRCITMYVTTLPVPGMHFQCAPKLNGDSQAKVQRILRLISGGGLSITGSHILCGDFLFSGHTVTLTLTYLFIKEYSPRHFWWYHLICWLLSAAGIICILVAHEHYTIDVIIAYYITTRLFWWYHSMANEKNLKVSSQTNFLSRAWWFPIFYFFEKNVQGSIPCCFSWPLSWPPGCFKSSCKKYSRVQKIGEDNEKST
Text: The second aim of the present invention is to show the use of 2-alkoxy benzene formyl arylamines in preparing SMS small-molecule inhibitors. This invention evaluate SMS inhibitory activity of 2-alkoxy benzene formyl arylamines as scheme I through HPLC fluorogenic quantitative detecting method reported (Xiaodong Deng; Hong Sun; et al. Analytical Letters, 2012, 45:12, 1581-1589), which can make it possible to calculate the catalytic activity difference of SMS treated with inhibitors or not through content changes of NBD-ceramide and NBD-sphingomyelin.
9. The organic solvents were purchased from Shanghai Sinopharm Reagent Company; methanol is of HPLC grade; water is ultrapure water filtrated by Milli-Q pump and deionized and ultrafiltrated by 0.22 μm ultrafiltration membrane. Other biological supplies are purchased in domestic companies. 10. Preparation of SMS homogenate extraction buffer (Buffer1): (50 mM Tris hydrochloride, pH 7.4, 5% anhydrous sucrose, 1 mM ethylenediaminetetraacetic acid) 1.2114 g tris(hydroxymethyl)aminomethane hydrochloride (Tris-HCl) was dissolved in 100 ml distilled water. Then 84 ml 0.1 mol/L hydrochloric acid was added. Constant volume to 200 ml. Finally, 10 g sucrose and 58.45 mg EDTA were dissolved in the mixture. 11. Preparation of SMS test buffer […]: (100 mM Hepes, 30 mM MnCl2, 3% fatty acid free BSA): 1.1916 g 4-(2-hydroxyethyl)-1-peperazineethanesulfonic acid (Hepes), 0.2969 g MnCl2.4H2O and 0.3 g fatty acid free bovine serum albumin were dissolved in distilled water then constant volume to 50 ml. 12. Preparation of under tested compound solution: To each accurate weighed compound for 1˜2 mg, an appropriate amount of DMSO was added to formulate a stock solution of 6 mM precisely. To a certain volume of the DMSO stock solution of the test compound, the appropriate volume of DMSO was added to dilute the solution to the desired concentration. 13. SMS2 high-expressed insect cell homogenate was prepared by Xu Yanhui group from Institutes of Biomedical Sciences, Fudan University. Part 1 Activity Assay for Inhibition of 2-Alkoxy-Benzoyl Aromatic Amines to Sphingomyelin Synthase 2
250 μL tri-distilled water, 30 μL Buffer2, 4 μL SMS2 high-expressed insect cell homogenate (total protein content is 0.5 μg/μL) and 10 μL DMSO or DMSO solution of under tested compound were added to 1.5 mL eppendorf tube, vortex mixed for 30 seconds and then incubated in a 37° C. water bath for 0.5 h. 3 μL ethanol solution of DMPC (40 mM) and 3 μL ethanol solution of C6-NBD-Ceramide (1.16 mM) were added, vortex mixed for 30 seconds, and then incubate in a 37° C. water bath for 2.0 hours. To it 600 μL anhydrous ethanol was added vortex mixed for 1 minute and centrifuged 10 minutes in 10000 rpm and 600 μL supernatant was taken out and stored at 4° C. for HPLC analysis.
Using the same HPLC fluorogenic quantitative detecting method as reference (Xiaodong Deng; Hong Sun; et al. Analytical Letters, 2012, 45:12, 1581-1589) to analysize samples obtained above. Analysize and record peak areas of C6-NBD-SM (Asm) and C6-NBD-Ceramide (Acer) of each sample from blank group, positive control group (compound D2) and under tested compound group. The data were parallelly determined for 3 times. Calculate inhibition rate from the formula below: […]
The DMSO stock solution of under tested compound (6 mM) was diluted stepwise into five concentration gradient. 10 μL solution of each concentration was added into the trial system to prepare samples with the method mentioned in the first step of application case 12. The Asm values of the five concentration solution of tested compound were measured, and the inhibition rate under the five concentration were calculated and fitted to obtain median inhibitory concentration (IC50). Each compound was measured three parallel groups. SMS2 median inhibitory concentration of Scheme I-1˜I-60 are listed below in Table 1: […]

[3] = at 10 μM, read-out: inhibition rate

Structure (SMILES) | IC50 [2] [µM] | inhibition at 10 µM [2, 3] [%] | further results
S=C(S)OC1CC2CC1C1CCCC21 (stereo not drawn) [Scheme D609] |  |  | IC50 [1]: 375 µM
CCCCCCOc1ccccc1COc1ccccc1C(=O)Nc1cccnc1 [Scheme I-37, 2-((2-hexyloxy)benzyloxy)-N-(pyridin-3-yl) benzamide] | 0.7 |  | inhibition rate ([2]; at 10 μM): 90.2%
CCCCCCCOc1ccccc1COc1ccccc1C(=O)Nc1cccnc1 [Scheme I-38, 2-((2-heptyloxy)benzyloxy)-N-(pyridin-3-yl) benzamide] | 0.5 | 90.5 | 
O=C(Nc1cccnc1)c1ccccc1OCc1cccc(C(F)(F)F)c1 [Scheme I-41, 2-((3-trifluoromethyl)benzyloxy)-N-(pyridin-3-yl) benzamide] | > 100 | 10 | 
O=C(Nc1cccnc1)c1ccccc1OCc1ccccc1C(F)(F)F [Scheme I-42, 2-((2-trifluoromethyl)benzyloxy)-N-(pyridin-3-yl) benzamide] | 2.1 |  | inhibition rate ([2]; at 5 μM): 65.5%
Cc1ccc(Cl)cc1COc1ccccc1C(=O)Nc1cccnc1 [Scheme I-43, 2-((5-chloro-2-methyl)benzyloxy)-N-(pyridin-3-yl) benzamide] | 1.1 |  | inhibition rate ([2]; at 5 μM): 74.8%
Cc1c(Cl)cccc1COc1ccccc1C(=O)Nc1cccnc1 [Scheme I-44, 2-((3-chloro-2-methyl)benzyloxy)-N-(pyridin-3-yl) benzamide] | 3.8 |  | inhibition rate ([2]; at 5 μM): 47.0%
O=C(Nc1cccnc1)c1ccccc1OCc1cccc2ccccc12 [Scheme I-45, 2-((naphthalen-1-yl)methoxy)-N-(pyridin-3-yl) benzamide] | 2.6 | 78 | melting point: 91.4 to 93.9 °C
O=C(O)c1ccc(COc2ccccc2C(=O)Nc2cccnc2)cc1 [Scheme I-46, 4-((2-(pyridin-3-ylcarbamoyl)phenoxy)methyl) benzoic acid] | > 100 | 2.6 | 
O=C(O)COc1ccccc1COc1ccccc1C(=O)Nc1cccnc1 [Scheme I-47, 2-(2-((2-(pyridin-3-ylcarbamoyl)phenoxy)methyl)phenoxy) acetic acid] | > 100 | 7.4 | 
O=C(O)COc1cccc(COc2ccccc2C(=O)Nc2cccnc2)c1 [Scheme I-48, 2-(3-((2-(pyridin-3-ylcarbamoyl)phenoxy)methyl)phenoxy) acetic acid] | > 100 | 3 | 
COCCCOc1ccc(Cl)cc1COc1ccccc1C(=O)Nc1cccnc1 [Scheme I-49, 2-((5-chloro-2-(3-methoxy-propoxy))benzyloxy)-N-(pyridin-3-yl) benzamide] | 4.1 | 75.3 | 

More lines, main results first:

IC50 [2] [µM] | inhibition at 10 µM [2, 3] [%] | Structure (SMILES) | further results
11.6 | 54.2 | COCCOc1ccc(Cl)cc1COc1ccccc1C(=O)Nc1cccnc1 [Scheme I-50, 2-((5-chloro-2-(2-methoxyethoxy))benzyloxy)-N-(pyridin-3-yl) benzamide] | 
> 50 | 24.9 | O=C(Nc1cccnc1)c1ccccc1OCc1cc(Cl)ccc1OCCN1CCOCC1 [Scheme I-51, 2-((5-chloro-2-(2-morpholino-ethoxy))benzyloxy)-N-(pyridin-3-yl) benzamide] | 
11.7 |  | O=C(Nc1ccccn1)c1ccccc1OCc1ccccc1 [Scheme I-52, 2-benzyloxy-N-(pyridin-2-yl) benzamide] | inhibition at 100 µM ([2]; at 100 μM, read-out: inhibition rate): 60.1%
> 25 | 38.4 | O=C(Nc1cncnc1)c1ccccc1OCc1ccccc1 [Scheme I-53, 2-benzyloxy-N-(pyrimidin-5-yl) benzamide] | melting point: 112.3 to 114.9 °C
> 25 | 42.3 | O=C(Nc1cccnc1)c1cc(Cl)ccc1OCc1c(Cl)cccc1Cl [Scheme I-54, 5-chloro-2-((2,6-dichlorophenyl)benzyloxy)-N-(pyridin-3-yl) benzamide] | 
> 25 | 31.7 | O=C(Nc1cccnc1)c1cc(Cl)ccc1OCc1cc(F)ccc1Cl [Scheme I-55, 5-chloro-2-((2-chloro-5-fluoro)benzyloxy)-N-(pyridin-3-yl) benzamide] | 
> 50 | 20 | O=C(Nc1cccnc1)c1ccc(Cl)cc1OCc1ccccc1Cl [Scheme I-56, 4-Chloro-2-(2-chloro-benzyloxy)-N-(pyridin-3-yl) benzamide] | 
> 100 | 1.7 | O=C(Nc1cccnc1)c1cc([N+](=O)[O-])ccc1OCc1ccccc1Cl [Scheme I-57, 2-(2-chloro-benzyloxy)-5-nitro-N-(pyridin-3-yl) benzamide] | 
> 50 | 19.4 | O=C(Nc1cccnc1)c1ccc(Br)cc1OCc1ccccc1Cl [Scheme I-58, 4-bromo-2-(2-chloro-benzyloxy)-N-(pyridin-3-yl) benzamide] | 
> 100 | 7.2 | COc1ccc(OCc2ccccc2Cl)c(C(=O)Nc2cccnc2)c1 [Scheme I-59, 2-(2-chloro-benzyloxy)-5-methoxy-N-(pyridin-3-yl) benzamide] | 
> 50 | 13.3 | COc1ccc(C(=O)Nc2cccnc2)c(OCc2ccccc2Cl)c1 [Scheme I-60, 2-(2-chloro-benzyloxy)-4-methoxy-N-(pyridin-3-yl) benzamide] | melting point: 129.2 to 131.9 °C
